Data as given in US20120277299A1, “METHOD FOR MODULATING ION TRANSPORTER” (SUCAMPO AG, priority 2011, published 2012).

Tested on: Na^+/K^+/Cl^− cotransporter
Experiment: 86Rb uptake assay for Na+/K+/Cl− cotransporter activity in A7r5 cells
Format: cell-based, Rat
Details: for effect on 86Rb uptake (activation of Na+/K+/Cl− cotransporter): 0.01 μM to 10 μM; for % control activity: 86Rb uptake, 10 min at 37° C.
Experimental: The effect of Compound 1 ((−)-7-[(2R,4aR,5R,7aR)-2-(1,1-difluoropentyl)-2-hydroxy-6-oxooctahydrocyclopenta[b]pyran-5-yl]heptanoic acid) and Compound 2 ((−)-7-{(2R,4aR,5R,7aR)-2-[(3S)-1,1-difluoro-3-methylpentyl]-2-hydroxy-6-oxooctahydrocyclopenta[b]pyran-5-yl}heptanoic acid) on […] cotransporter were assessed by ^86Rb uptake. Rat aorta-derived smooth muscle cells (A7r5) cells were cultured to sub-confluent on culture dishes and used for the assay. The culture medium was removed and replaced by uptake medium that contains labeled isotope (47 μM ^86Rb) and each compound.
After 10 min incubation at 37° C., uptake medium was removed and extracellular radioactivity was washed using 0.1M […] solution. The cells were harvested in 0.1M NaOH and the radioactivity incorporated by the cells was determined. Compound1 and 2 were tested at concentrations ranging from 0.01 μM to 10 μM and each determination was made in duplicate.

Row | SMILES | effect on 86Rb uptake (activation of Na+/K+/Cl− cotransporter) | % control activity (compound 0.01 μM) | % control activity (compound 0.03 μM) | % control activity (compound 0.1 μM) | % control activity (compound 0.3 μM) | % control activity (compound 1 μM) | % control activity (compound 3 μM) | % control activity (compound 10 μM)
1 | CC[C@H](C)CC(F)(F)[C@@]1(O)CC[C@H]2[C@@H](CC(=O)[C@@H]2CCCCCCC(=O)O)O1 [Compound 2, (−)-7-{(2R,4aR,5R,7aR)-2-[(3S)-1,1-difluoro-3-methylpentyl]-2-hydroxy-6-oxooctahydrocyclopenta[b]pyran-5-yl}heptanoic acid] | increased ^86Rb uptake concentration-dependently | 108.1% | 143.0% | 157.4% | 171.3% | 168.5% | 213.6% | 205.1%
2 | CCCCC(F)(F)[C@@]1(O)CC[C@H]2[C@@H](CC(=O)[C@@H]2CCCCCCC(=O)O)O1 [Compound 1, (−)-7-[(2R,4aR,5R,7aR)-2-(1,1-difluoropentyl)-2-hydroxy-6-oxooctahydrocyclopenta[b]pyran-5-yl]heptanoic acid] | increased ^86Rb uptake concentration-dependently | 82.7% | 115.7% | 122.6% | 133.2% | 134.2% | 152.3% | 175.5%
